Each structure is given as a SMILES string. Read-outs that look alike come from different tables or passages of the source.

For one series, the target named is T1, MOR (Rattus norvegicus, UniProt P33535).
T1 construct: from tissue
Put plainly: Opioid receptor binding, MOR, rat brain membranes.

A further series deals with T2, DOR (Rattus norvegicus, UniProt P33533).
T2 construct: from tissue
Put plainly: Opioid receptor binding, DOR, rat brain membranes.

A further series has as its target T3, human MOR (Homo sapiens, UniProt P35372).
T3 construct: expressed in transfected cells; host or cells: CHO cells
Put plainly: biochemical. The format is biochemical. Conditions: for Emax: read-out: [35S]GTPγS binding, MOR % stim. On the procedure:
A number of compounds were evaluated for agonist potency and efficacy at the MOR using the [^35S]GTPγS functional assay in CHO cells expressing human MOR receptors.
Background: GTPγS is a poorly hydrolysed GTP analogue; its binding reports G protein activation.

Series [1] has as its system mouse vas deferens preparation. Put plainly: Mouse vas deferens bioassay. To be noted: for IC50: read-out: IC50, agonist potency in mouse vas deferens. On the procedure:
The mouse vas deferens bioassay was performed as described in: M. Spetea et al., Eur. J. Pharmacol. 2004, 483, 301-308

Series [2] can be described thus: pH-metric determination of pKa, logP and logD in octanol/water (PCA200/Cheqsol). The format is physicochemical. On the procedure:
All titrations were performed in 0.15M KCl solution under argon gas. The pKa was determined by the shape of the titration curve and partition coefficients were determined by the shift in titration curve of pKa in the presence of octanol. The analysis of pH-metric data was performed by RefinementPro software (version 2.0, Sirius, Sussex, UK).

A short description of series [3]: Permeation study through rat small intestine in Ussing type diffusion chambers. The format is in vitro ADME. To be noted: apical to basolateral, pH 7.5, no permeation enhancer, three hours incubation.
Description: Ussing type diffusion chambers with a surface area of 0.64 cm^2 were utilized. Rat small intestine was excised immediately after sacrificing the animal and mounted in the chamber. The donor and acceptor compartments of the chamber were filled with 1.0 ml of the freshly prepared incubation medium containing either 40 mM HEPES buffer (HEPES=2-(4-(2-hydroxyethyl)-1-piperazinyl)-ethane sulfonic acid) adjusted to pH 7.5 or 6.5 or 50 mM sodium acetate buffer adjusted to pH 5.5. […] The samples were centrifuged at 7,200 g for 5 minutes and the supernatant was analyzed via HPLC. Cumulative corrections were performed for the previously removed samples to determine the total amount permeated.
The subject of another series is rats. Put plainly: Tail-flick test in rats after oral administration. Format: in vivo, rat. Conditions: for ED50: Rattus norvegicus, po. As for the experimental part: The rat tail-flick test was performed as described in: S. Furst et. al. J. Pharmacol. Exp. Ther. 2005, 312, 609-618
For orientation: Hot-plate and tail-flick tests time the reaction to a heat stimulus.

The target in the next series is T4, KOR (Cavia porcellus, UniProt P41144).
T4 construct: from tissue
Put plainly: Opioid receptor binding, KOR, guinea pig brain membranes. To be noted: Binding Ki (nM) KOR, in vitro binding assay, guinea pig brain membranes.

For series [4] the following is noted: Riba P. et al. 2010, cited from earlier work.
For series [5] the following is noted: cited from earlier work.
The mark [6] stands for this setting: 0.5 h, read-out: ED50 (p.o., mg/kg) 30 min, 30 min.
Setting [7] is: read-out: ED50 (p.o., mg/kg) 1 h, 1 h.
[8] abbreviates: read-out: ED50 (p.o., mg/kg) 2 h, 2 h.
The mark [9] stands for this setting: read-out: ED50 (p.o., mg/kg) 3 h, 3 h.

T3 sequence (P35372 whole entry): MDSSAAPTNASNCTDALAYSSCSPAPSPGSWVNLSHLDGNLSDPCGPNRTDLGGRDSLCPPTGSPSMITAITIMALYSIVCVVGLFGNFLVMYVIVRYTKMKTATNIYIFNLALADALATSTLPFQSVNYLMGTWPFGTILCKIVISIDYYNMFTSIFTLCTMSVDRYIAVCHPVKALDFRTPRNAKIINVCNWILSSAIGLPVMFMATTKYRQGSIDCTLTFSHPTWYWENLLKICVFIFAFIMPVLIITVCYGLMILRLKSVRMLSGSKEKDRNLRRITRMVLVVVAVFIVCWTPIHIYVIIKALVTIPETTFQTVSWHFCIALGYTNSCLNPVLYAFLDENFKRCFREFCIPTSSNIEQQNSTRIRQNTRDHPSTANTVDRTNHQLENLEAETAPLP
T2 sequence (P33533 whole entry): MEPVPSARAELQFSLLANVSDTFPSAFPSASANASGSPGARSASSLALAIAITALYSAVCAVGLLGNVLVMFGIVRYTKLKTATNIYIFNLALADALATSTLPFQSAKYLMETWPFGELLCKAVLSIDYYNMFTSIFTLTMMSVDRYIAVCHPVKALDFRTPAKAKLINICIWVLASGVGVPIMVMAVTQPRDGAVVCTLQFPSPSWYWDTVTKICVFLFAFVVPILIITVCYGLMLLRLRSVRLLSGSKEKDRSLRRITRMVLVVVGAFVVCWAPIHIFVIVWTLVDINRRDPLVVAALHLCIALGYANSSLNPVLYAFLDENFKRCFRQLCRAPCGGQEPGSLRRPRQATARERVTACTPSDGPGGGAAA
T1 sequence (P33535 whole entry): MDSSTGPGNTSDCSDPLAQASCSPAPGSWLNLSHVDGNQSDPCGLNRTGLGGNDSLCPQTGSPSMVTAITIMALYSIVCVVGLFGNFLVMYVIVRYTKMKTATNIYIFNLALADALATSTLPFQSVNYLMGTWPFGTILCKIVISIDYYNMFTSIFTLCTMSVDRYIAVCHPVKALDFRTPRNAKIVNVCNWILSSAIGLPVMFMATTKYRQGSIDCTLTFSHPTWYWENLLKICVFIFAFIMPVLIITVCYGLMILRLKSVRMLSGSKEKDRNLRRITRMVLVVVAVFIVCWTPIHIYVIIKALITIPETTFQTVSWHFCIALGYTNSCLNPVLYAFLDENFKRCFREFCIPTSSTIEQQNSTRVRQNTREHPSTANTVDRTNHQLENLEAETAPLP
T4 sequence (P41144 whole entry): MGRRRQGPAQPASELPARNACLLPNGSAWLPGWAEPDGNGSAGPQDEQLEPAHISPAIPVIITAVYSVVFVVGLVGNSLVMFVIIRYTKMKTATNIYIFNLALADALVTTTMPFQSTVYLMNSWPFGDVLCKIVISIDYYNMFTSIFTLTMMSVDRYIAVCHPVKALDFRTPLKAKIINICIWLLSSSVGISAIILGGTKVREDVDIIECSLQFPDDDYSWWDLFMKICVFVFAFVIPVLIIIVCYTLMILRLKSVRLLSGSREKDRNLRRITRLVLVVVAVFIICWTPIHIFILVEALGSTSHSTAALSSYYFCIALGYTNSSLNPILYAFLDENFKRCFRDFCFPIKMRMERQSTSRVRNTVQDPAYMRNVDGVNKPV

For the molecule `CO[C@@]12CCC(=O)[C@@H]3Oc4c(O)ccc5c4[C@@]31CCN(C)[C@@H]2C5` [Compound 14-OMO, 14-O-methyloxymorphone, reference compound], the Ki (usually a dissociation constant, usually derived from enzyme kinetics or from competition with a known ligand) at MOR (Table 1-4, rat brain membranes, read-out: Binding Ki MOR) worked out at 0.1 nM; at MOR (in vitro binding assay, rat brain membranes, read-out: Binding Ki (nM) MOR) it was 0.1 nM; at DOR (Table 1-4, rat brain membranes, read-out: Binding Ki DOR) it was 4.8 nM; on DOR (in vitro binding assay, rat brain membranes, read-out: Binding Ki (nM) DOR) it was 4.8 nM. Further, the EC50 (commonly the concentration giving half of the maximal effect) at human MOR (Table 1-4, human MOP expressed in CHO cells, read-out: [35S]GTPγS binding, MOR EC50) was 1.17 nM. The “[35S]GTPγS binding, MOR % stim.” value at human MOR (Table 1-4, measured against DAMGO) is recorded as 127%. Besides, the IC50 – broadly, the concentration at which inhibition is half-maximal – in [1] is 7.76 nM.
For the molecule `CO[C@@]12CC[C@H](NCCCC(=O)O)[C@@H]3Oc4c(O)ccc5c4[C@@]31CCN(C)[C@@H]2C5` [Compound 15], at human MOR, the EC50 came out at 1.9 nM and the Emax came to 113%. Moreover, the logP (usually a log measure of how a compound divides between an organic and an aqueous phase) in series [2] (octanol/water, 25° C.) was -0.36.
Consider `C[C@@H](NC(=O)[C@@H](N)Cc1ccc(O)cc1)C(=O)NCC(=O)N(C)[C@@H](Cc1ccccc1)C(=O)NCCO` [DAMGO, reference compound], for which the IC50 in [1] was 76.6 nM.
`CCO.CO[C@@]12CC[C@@H](NCC(=O)O)[C@@H]3Oc4c(O)ccc5c4[C@@]31CCN(C)[C@@H]2C5.Cl.Cl.O` [HS731, 2-[(4,5α-EPOXY-3-HYDROXY-14β-METHOXY-17-METHYLMORPHINAN-6β-YL)AMINO]ACETIC ACID DIHYDROCHLORIDE HYDRATE ETHANOLATE]: the “permeation through rat intestinal mucosa” value in series [3] stood at 11%. For the same molecule, a half-maximal response on human MOR (EC50) required 3.88 nM. Besides, the Emax at human MOR was found to be 107%. For the same molecule, the pKa – broadly, the pH at which an ionisable group is half protonated – in [2] ([…] KCl solution (aqueous titration), 25° C., 0.15M KCl) was found to be 2.4. Also, the logP in series [2] (octanol/water, 25° C.) is -0.78. Moreover, the logD (in general, the decadic logarithm of the distribution of all forms, ionised or not, between an organic phase and buffer at a given pH) in series [2] (octanol/water, pH 7.4, 25° C.) is -2.06. For the same molecule, in [1] (Mus musculus), the IC50 came to 7 nM. Moreover, the ED50 in the series with rats (setting [6]) is 21 mg/kg; with rats (setting [7]) it was 5.52 mg/kg; in the series with rats (setting [8]), 6.78 mg/kg; with rats (setting [9]), 6.33 mg/kg.
Take `CCOC(=O)CN[C@@H]1CC[C@@]2(OC)[C@H]3Cc4ccc(O)c5c4[C@@]2(CCN3C)[C@H]1O5` [HS731-Et ester]: the Ki on MOR (Binding Ki (nM) MOR, in vitro binding assay, rat brain membranes) was determined as 0.74 nM; at DOR (Binding Ki (nM) DOR, in vitro binding assay, rat brain membranes), 0.81 nM; on KOR, 21.9 nM. Moreover, in series [1] (Mus musculus), the IC50 was 23.8 nM. Also, in series [1] (relative to HS731), the “times less potent than HS731 in mouse vas deferens bioassay” value is “about 3.5”. The ED50 was > 2.5 mg/kg in the series on rats (setting [6]); 2.34 mg/kg in the series with rats (setting [7]); 0.85 mg/kg in the series with rats (setting [8]); 0.71 mg/kg in the series with rats (setting [9]); 0.82 mg/kg in the series on rats (read-out: ED50 (p.o., mg/kg) 4 h, 4 h). In addition, in the series on rats (p.o., 1 h, relative to HS731), the “antinociceptive potency, fold higher than HS731 after 1 h” value was “ca. 2 fold”. The “antinociceptive potency, fold higher than HS731 after 2 h” value with rats (p.o., 2 h, relative to HS731) was “ca. 8 fold”. In the series with rats (p.o., 3 h, relative to HS731), the “antinociceptive potency, fold higher than HS731 after 3 h” value was “ca. 9 fold”.
Turning to `CN1CC[C@]23c4c5ccc(O)c4O[C@H]2C(=O)CC[C@@]3(O)[C@H]1C5` [OMO, oxymorphone], the “logD (pH = 7.4)” value in [4] (pH 7.4, published data) is −0.32. Also, in [4] (published data), the logP is recorded as 0.67 and the pKa is 8.33.
Take `C[C@H]1CN(C[C@H](Cc2ccccc2)C(=O)NCC(=O)O)CC[C@@]1(C)c1cccc(O)c1` [alvimopan]: in [5], the oral bioavailability result is “approx. 6%”.

The values are drawn from US20170217976A1, “6-(AMINO ACID)-MORPHINAN DERIVATIVES IN COMBINATION WITH PERMEATION […] FOR USE AS AN ORALLY, […], TRA[…] NASALLY AD[…]” (C[…], priority 2014, published 2017).
